Laboratory results as given in patent US20240254118A1, “PRMT5 INHIBITORS AND USES THEREOF” (Gilead Sciences, Inc., priority 2022, published 2024).
pEC50: −log10 of the molar value. Like-named read-outs stand apart in the source and are kept apart here.

Key:
[1] = test system: SDMA signal (PRMT5 inhibition) in HCT116 MTAP-deleted cells; assay: Symmetric di-methyl arginine image-based high content screen assay (SDMA assay), HCT116 MTAP-deleted; type: cell-based; conditions: for pEC50: Homo sapiens, HCT-116, 72 h, read-out: EC50 (SDMA assay); for EC50 selectivity (SDMA assay): taken as HCT116 WT versus MTAP-deleted
Method: Symmetric di-methyl arginine image-based high content screen assay (SDMA assay) was performed in HCT116 WT and HCT116 MTAP-deleted cell lines to measure Symmetric Di-methyl Arginine (SDMA) signal reduction after selective PRMT5 inhibition in the MTAP-deleted cells.
Briefly, the same compound plates were generated as mentioned in the previous section of Cell viability assay on Day −1.
On Day 3, the cells were fixed by adding 45 μl of 8% neutralized formalin solution to each well using EL460 liquid dispenser 5 μl cassette and the cells were incubated for 30 minutes at room temperature. The formalin solution was washed off with […] phosphate buffered saline (dPBS), the 0.1% Triton X-100 solution in dPBS was used to permeabilize the cells for 15 minutes at room temperature. The triton solution was aspirated, 50 μl of Odyssey Blocking buffer+0.05% Tween20 was added and the plate was incubated at room temperature for 30 minutes.
The blocking solution was removed, a 20 μl of SDMA antibody (Cell Signaling Technology, Cat no. 13222) diluted 1:500 in Odyssey Blocking buffer+0.05% Tween20 was added and the plate was incubated at 4° C. overnight. Next day, the primary SDME antibody solution was washed from each well three times with 0.05% Tween20 in dPBS (PBST).
A 30 μl of the secondary antibody, a Goat anti-Rabbit Alexa Fluor Plus 488 (Invitrogen, Cat no. PIA32731) was diluted 1:500 in Odyssey Blocking buffer+0.05% Tween20 and the plate was incubated for 1.5 hours in dark at room temperature. The secondary antibody solution was removed, 30 μl of 5 mg/ml DAPI solution diluted 1:2000 in dPBS was added and the plate was incubated for 30 minutes in dark at room temperature. The DAPI solution was aspirated and the wells were washed six times with dPBS.
The SDMA signal and DAPI signal per cell were counted using a Cellomics CX7 LZR instrument reading under 488 and 405 nm laser, respectively. The SDMA signal was quantified by mean average intensity per cell from Alexa Fluor Plus 488 after the cell was defined with DAPI.

[2] = test system: HCT116 MTAP-deleted cells; assay: Cell viability assay (CellTiter-Glo, 7 days), HCT116 MTAP-deleted; conditions: Homo sapiens, HCT-116, 168 h
[3] = SDMA assay, 3 days of treatment, cell line not given, taken as HCT116 MTAP-deleted

Row | SMILES | pEC50 [1, 3] | EC50 selectivity (SDMA assay) ([1]; SDMA assay) | CC50 [2] | pEC50 [1]
1 | Cn1ncc2c(N)nc3ccc(C(=O)N(Cc4ccc(C(F)(F)F)cn4)N4CCN(CC(F)(F)F)C4=O)cc3c21 [Example 4, 4-amino-1-methyl-N-(2-oxo-3-(2,2,2-trifluoroethyl)imidazolidin-1-yl)-N-((5-(trifluoromethyl)pyridin-2-yl)methyl)-1H-pyrazolo [4,3-c]quinoline-8-carboxamide] | 8.30 to 9.00 | 327 | < 100 nM | 
2 | Cn1ncc2c(N)nc3ccc(C(=O)N(Cc4ccc(OC(F)F)cc4)N4CCCOC4=O)cc3c21 [Example 5, 4-amino-N-(4-(difluoromethoxy)benzyl)-1-methyl-N-(2-oxo-1,3-oxazinan-3-yl)-1H-pyrazolo[4,3-c]quinoline-8-carboxamide] | > 9.00 | 266 | < 100 nM | 
3 | CC(=O)N(c1ccccc1)N(Cc1ccc(C(F)(F)F)cn1)C(=O)c1ccc2nc(N)c3cnn(C)c3c2c1 [Example 6, N′-acetyl-4-amino-1-methyl-N′-phenyl-N-((5-(trifluoromethyl)pyridin-2-yl)methyl)-1H-pyrazolo[4,3-c]quinoline-8-carbohydrazide] | > 9.00 | 286 | < 100 nM | 
4 | CN1CCN(N(Cc2ccc(C(F)(F)F)cc2F)C(=O)c2ccc3nc(N)c4cnn(C)c4c3c2)C1=O [Example 7, 4-amino-N-(2-fluoro-4-(trifluoromethyl)benzyl)-1-methyl-N-(3-methyl-2-oxoimidazolidin-1-yl)-1H-pyrazolo[4,3-c]quinoline-8-carboxamide] | > 9.00 | 62 | < 100 nM | 
5 | Cn1ncc2c(N)nc3ccc(C(=O)N(Cc4ccc(C(F)(F)F)cn4)N4CCCOC4=O)cc3c21 [Example 10, 4-amino-1-methyl-N-(2-oxo-1,3-oxazinan-3-yl)-N-((5-(trifluoromethyl)pyridin-2-yl)methyl)-1H-pyrazolo[4,3-c]quinoline-8-carboxamide] | > 9.00 | 180 | < 100 nM | 
6 | Cn1ncc2c(N)nc3ccc(C(=O)N(Cc4ccc(C(F)(F)F)cn4)N4C(=O)[C@H]5CC[C@@H]4C5)cc3c21 [Example 11, 4-amino-1-methyl-N-[(1R,4S)-3-oxo-2-azabicyclo[2.2.1]heptan-2-yl]-N-[[5-(trifluoromethyl)-2-pyridyl]methyl]pyrazolo[4,3-c]quinoline-8-carboxamide] | > 9.00 | 245 | < 100 nM | 
7 | Cn1ncc2c(N)nc3ccc(C(=O)N(Cc4ccc(C(F)(F)F)cn4)N4CC(F)(F)CCC4=O)cc3c21 [Example 13, 4-amino-N-(5,5-difluoro-2-oxo-1-piperidyl)-1-methyl-N-[[5-(trifluoromethyl)-2-pyridyl]methyl]pyrazolo[4,3-c]quinoline-8-carboxamide] | > 9.00 | 128 | < 100 nM | 
8 | CN(C(=O)Oc1ccccc1)N(Cc1ccc(C(F)(F)F)cn1)C(=O)c1ccc2nc(N)c3cnn(C)c3c2c1 [Example 14, Phenyl 2-(4-amino-1-methyl-1H-pyrazolo[4,3-c]quinoline-8-carbonyl)-1-methyl-2-((5-(trifluoromethyl)pyridin-2-yl)methyl)hydrazine-1-carboxylate] |  | 148 | < 100 nM | 8.30 to 9.00
9 | Cn1ncc2c(N)nc3ccc(C(=O)N(Cc4ccc(C(F)(F)F)c(F)c4)N4CCCC4=O)cc3c21 [Example 15, 4-amino-N-(3-fluoro-4-(trifluoromethyl)benzyl)-1-methyl-N-(2-oxopyrrolidin-1-yl)-1H-pyrazolo[4,3-c]quinoline-8-carboxamide] | 8.30 to 9.00 | 23 | < 100 nM | 
10 | COc1ccc(CN(C(=O)c2ccc3nc(N)c4cnn(C)c4c3c2)N(C)C(C)=O)c(F)c1 [Example 16, N′-acetyl-4-amino-N-(2-fluoro-4-methoxybenzyl)-N′,1-dimethyl-1H-pyrazolo[4,3-c]quinoline-8-carbohydrazide] | > 9.00 | 306 | < 100 nM | 
11 | Cn1ncc2c(N)nc3ccc(C(=O)N(Cc4ccc(C(F)(F)F)cn4)N4CC5(CCC5)OC4=O)cc3c21 [Example 17, 4-amino-1-methyl-N-(6-oxo-5-oxa-7-azaspiro[3.4]octan-7-yl)-N-[[5-(trifluoromethyl)-2-pyridyl]methyl]pyrazolo[4,3-c]quinoline-8-carboxamide] | > 9.00 | 502 | < 100 nM | 

More lines, main results first:

Row | pEC50 [1, 3] | EC50 selectivity (SDMA assay) ([1]; SDMA assay) | SMILES | CC50 [2] | pEC50 [1]
12 | > 9.00 | 61 | COc1nc(C(F)(F)F)ccc1CN(C(=O)c1ccc2nc(N)c3cnn(C)c3c2c1)N(C)C(C)=O [Example 18, N′-acetyl-4-amino-N-[[2-methoxy-6-(trifluoromethyl)-3-pyridyl]methyl]-N′, 1-dimethyl-pyrazolo[4,3-c]quinoline-8-carbohydrazide] | < 100 nM | 
13 | > 9.00 | 93 | COc1cc(C(F)(F)F)ccc1CN(C(=O)c1ccc2nc(N)c3cnn(C)c3c2c1)N(C)C(C)=O [Example 19, N′-acetyl-4-amino-N-[[2-methoxy-4-(trifluoromethyl)phenyl]methyl]-N′,1-dimethyl-pyrazolo[4,3-c]quinoline-8-carbohydrazide] | < 100 nM | 
14 | > 9.00 | 143 | Cn1ncc2c(N)nc3ccc(C(=O)N(Cc4ccc(C(F)(F)F)cn4)N4CCOCC4)cc3c21 [Example 20, 4-amino-1-methyl-N-morpholino-N-((5-(trifluoromethyl)pyridin-2-yl)methyl)-1H-pyrazolo[4,3-c]quinoline-8-carboxamide] | < 100 nM | 
15 | > 9.00 | 90 | Cn1ncc2c(N)nc3ccc(C(=O)N(Cc4ccc(C(F)(F)F)cn4)N4CCCC(F)(F)C4)cc3c21 [Example 21, 4-amino-N-(3,3-difluoro-1-piperidyl)-1-methyl-N-[[5-(trifluoromethyl)-2-pyridyl]methyl]pyrazolo[4,3-c]quinoline-8-carboxamide] | < 100 nM | 
16 | 8.30 to 9.00 | 260 | Cn1ncc2c(N)nc3ccc(C(=O)N(Cc4ccc(C(F)(F)F)cn4)N4CCC(F)(F)CC4)cc3c21 [Example 22, 4-amino-N-(4,4-difluoro-1-piperidyl)-1-methyl-N-[[5-(trifluoromethyl)-2-pyridyl]methyl]pyrazolo[4,3-c]quinoline-8-carboxamide] | < 100 nM | 
17 | > 9.00 | 18 | CN(c1ncccn1)N(Cc1ccc(C(F)(F)F)cn1)C(=O)c1ccc2nc(N)c3cnn(C)c3c2c1 [Example 23, 4-amino-N′, 1-dimethyl-N′-(pyrimidin-2-yl)-N-((5-(trifluoromethyl)pyridin-2-yl)methyl)-1H-pyrazolo[4,3-c]quinoline-8-carbohydrazide] | < 100 nM | 
18 | > 9.00 | 87 | CN(c1ncccn1)N(Cc1ccc(C(F)(F)F)cn1)C(=O)c1ccc2nc(N)c3ccccc3c2c1 [Example 24, 6-amino-N′-methyl-N′-(pyrimidin-2-yl)-N-((5-(trifluoromethyl)pyridin-2-yl)methyl)phenanthridine-2-carbohydrazide] | < 100 nM | 
19 | 8.30 to 9.00 | 26 | CN(c1ccccn1)N(Cc1ccc(C(F)(F)F)cn1)C(=O)c1ccc2nc(N)c3cnn(C)c3c2c1 [Example 25, 4-amino-N′, 1-dimethyl-N′-(2-pyridyl)-N-[[5-(trifluoromethyl)-2-pyridyl]methyl]pyrazolo[4,3-c]quinoline-8-carbohydrazide] | < 100 nM | 
20 | 8.30 to 9.00 | 85 | Cn1ncc2c(N)nc3ccc(C(=O)N(Cc4ccc(C(F)(F)F)cn4)N4CCCC4=O)cc3c21 [Example 26, 4-amino-1-methyl-N-(2-oxopyrrolidin-1-yl)-N-[[5-(trifluoromethyl)-2-pyridyl]methyl]pyrazolo[4,3-c]quinoline-8-carboxamide] | < 100 nM | 
21 | > 9.00 | 94 | Cn1ncc2c(N)nc3ccc(C(=O)N(Cc4ccc(C(F)(F)F)cn4)N4CCCC4)cc3c21 [Example 27, 4-amino-1-methyl-N-pyrrolidin-1-yl-N-[[5-(trifluoromethyl)-2-pyridyl]methyl]pyrazolo[4,3-c]quinoline-8-carboxamide] | < 100 nM | 
